Data taken from patent US20070232556A1, “Methods and compositions for the treatment of neurological diseases and disorders” (priority 2006, published 2007).

How the values were obtained:
[1] = tested on: wt microglia; experiment: Microglial phagocytosis of aggregated fluorescein-labeled Aβ1-42 (flow cytometry), wt microglia; type: cell-based, mouse; conditions: for Aβ1-42 uptake (percent of wt controls): n=6
Experimental: (§1) Microglial Aβ phagocytosis. At DIV 14, microglia were seeded in 6-well plates at 1.5×10^5 cells per well in microglial culture medium. After 2hr seeding, medium was changed with 1.5 ml of serum-free DMEM medium containing penicillin and streptomycin. To make aggregated Aβ for phagocytosis, Aβ was dissolved in 2 mM NaOH and was diluted into 10 μM of stock solution (100×) in PBS followed by incubation at 37° C. for 2 hr and monitored by turbidity. For studying signaling pathways involved in Aβ phagocytosis, some microglia were pre-treated for 1 hr with AH6809 (20 μM), butaprost ([…]), SC51089 (10 μM), PTPE2 (20 μM), forskolin (50 μM), or BIM (10 μM) prior to treatment with aggregated fluorescein labeled AP1-42 (100 nM). After 24hr incubation of Aβ, cells were washed with PBS followed by trypsinization (0.05%) and centrifugation. Cells were then re-suspended in PBS and subjected to flow cytometry. Flow cytometer (FACScan, BD Biosciences, San Jose, Calif.) set at un-gated 10,000 cells per measure was used to analyze Aβ uptake as an indication of Aβ phagocytosis. Data were analyzed using Summit Mo-Flo software (Cytomation, Fort Collins, Colo.). Phagocytosis was presented as percent of mean FITC intensity in wt controls treated with Aβ. Some cells were plated onto chambered slides at 1×10^4 for assessing cellular uptake of Aβ using fluorescent microscope (Nikon TE200).

[2] = tested on: EP2^−/− microglia; experiment: Microglial phagocytosis of aggregated fluorescein-labeled Aβ1-42 (flow cytometry), EP2−/− microglia; type: cell-based, mouse
Experimental: as §1

[3] = BIM at 10 μM, 1 hr pre-treatment, 100 nM fluorescein-Aβ1-42, 24 hr

## O=S(=O)(NCCNC/C=C/c1ccc(Br)cc1)c1cccc2cnccc12 [H89]
[1]; PKA inhibitor
  Effect on Aβ1-42 uptake: did not enhanced Aβ1-42 uptake

## O=C(O)CCC/C=C\C[C@H]1C(=O)C[C@@H](O)[C@@H]1/C=C/[C@@H](O)CCc1ccccc1 [PTPE2, 17-phenyl trinor prostaglandin E2]
[1]; PTPE2 at 20 μM
  Effect on Aβ1-42 phagocytosis: without effect
[2]; PTPE2 at 20 μM
  Effect on Aβ1-42 phagocytosis: without effect

## CCCC1([C@H](O)C/C=C/[C@H]2[C@H](O)CC(=O)[C@@H]2CCCCCCC(=O)OC)CCC1 [butaprost]
[1]; 1 μM
  Aβ1-42 uptake (percent of wt controls): 98±3%
[1]; 10 μM
  Aβ1-42 uptake (percent of wt controls): 104±2%
[1]; 50 μM
  Aβ1-42 uptake (percent of wt controls): 92±2%

## SC51089
[1]; SC51089 at 10 μM
  Effect on Aβ1-42 phagocytosis: without effect
[2]; SC51089 at 10 μM
  Effect on Aβ1-42 phagocytosis: without effect

## bisindolylmaleimide [BIM]
[1]; [3]
  Aβ1-42 uptake, % of wt basal Aβ1-42 uptake: 36±4%
[2]; [3]
  Aβ1-42 uptake, % of wt basal Aβ1-42 uptake: 35±4%
